Where two headings read alike, the source gives them in different places. Each block holds one compound with its values, some of them ahead of it.
Tests used:
[1] = cc_pd bond, 12-membered ring
[2] = system: ROS1-positive NSCLC; details: treatment of ROS1-positive NSCLC; cited from earlier work
[3] = system: TPM3-NTRK1-wt IC50 / primary target (e.g. CD74-ROS1-wt) IC50, Ba/F3 cells; test: Cell assay TRKA selectivity (TRKA potency divided by primary target potency); format: cell-based
In short: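 Ratio of TRKA to primary-target cellular IC50 (e.g. TPM3-NTRK1-wt/CD74-ROS1-wt), grouped into bins A >30, B >10, C ≥1, D <1. Each IC50 came from engineered Ba/F3 fusion lines grown without IL-3, dosed for 72 h and read as CellTiter-Glo luminescence, with a four-parameter logistic fit.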

[4] = target: T1, ALK L1196M/G1202R kinase domain (Homo sapiens, UniProt Q9UM73, G1202R/L1196M); test: Biochemical kinase assay, ALK L1196M/G1202R; details: 2 mM ATP substrate solution, read-out: Ki^app ALK-L1196M-G1202R
T1 construct: TRKA-wt (1 nM, BPS Bio, 40280) kinase domains in buffer; purchased SignalChem A19-12NG
In short: (§1)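 Continuous fluorescence read (λ=485 nm, every 2 min, 120 min, 30° C). Substrate solution held 2 mM ATP and 26 μM AQT0101 (ROS1/ALK) or AQT0104 (TRKA). Kinase solution: ROS1-G2032R 0.5 nM, ROS1-wt 0.6 nM, TRKA 1 nM, ALK double mutant 3 nM. Initial linear rates fed a Morrison-equation fit giving Ki^app.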

[5] = target: T2, TRKA-wt kinase domain (Homo sapiens, UniProt P04629); test: Biochemical kinase assay, TRKA-wt; details: 2 mM ATP substrate solution, read-out: Ki^app TRKA-wt
T2 construct: TRKA-wt (1 nM, BPS Bio, 40280) kinase domains in buffer; purchased BPS Bio 40280
In short: as §1

[6] = target: T3, ALK-wt kinase domain (Homo sapiens, UniProt Q9UM73); test: Biochemical kinase assay, ALK-wt; details: 2 mM ATP substrate solution, read-out: Ki^app ALK-wt
T3 construct: TRKA-wt (1 nM, BPS Bio, 40280) kinase domains in buffer; purchased Carna 08-518
In short: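 Compound in DMSO added first, then substrate solution (ATP 2 mM; AQT0101 or AQT0104, 26 μM; pH 7.5 HEPES, 10 mM MgCl2), then kinase solution with enzyme at 0.5–3 nM depending on construct. Kinetic read every 2 min for 120 min at 30° C; Ki^app by Morrison regression.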

[7] = target: T4, ROS1-wt kinase domain (Homo sapiens, UniProt P08922); test: Biochemical kinase assay, ROS1-wt; details: 2 mM ATP substrate solution, read-out: Ki^app ROS1-wt
T4 construct: TRKA-wt (1 nM, BPS Bio, 40280) kinase domains in buffer; purchased Carna 08-163
In short: as §1

[8] = target: T5, ROS1-G2032R kinase domain (Homo sapiens, UniProt P08922, G2032R); test: Biochemical kinase assay, ROS1-G2032R; details: 2 mM ATP substrate solution, read-out: Ki^app ROS1-G2032R
T5 construct: TRKA-wt (1 nM, BPS Bio, 40280) kinase domains in buffer; purchased SignalChem R14-12BG
In short: as §1

SMILES: CCc1noc2c1-c1cnc(N)c(n1)O[C@H](C)c1cc(F)ccc1-c1nn(C)cc1C2
- ring closure, yield after HPLC ([1]; from CCc1cc(Cc2cn(C)nc2-c2ccc(F)cc2[C@@H](C)Oc2nc(Br)cnc2N)on1, Pd(OAc)2/cataCXium A/KOAc, 2-methyl-2-butanol, 20.0 mM, 120.0 °C, 6.0 h): 24%

SMILES: C[C@@H](Oc1cc(-c2cnn(C3CCNCC3)c2)cnc1N)c1c(Cl)ccc(F)c1Cl [Crizotinib, crizotinib]
- median progression-free survival [2]: 9-19 months
- overall response rate [2]: 60-80%

SMILES: CC(Oc1cc(Br)cnc1N)c1cc(F)ccc1-c1c(Cn2cnc(C#N)c2)cnn1C (stereo not drawn)
- ring closure, yield after HPLC ([1]; the molecule shown is the open-chain precursor, Pd(OAc)2/cataCXium A/KOAc, 2-methyl-2-butanol, 30.0 mM, 120.0 °C): 5.9%

SMILES: CCn1ncc2c1-c1cnc(N)c(c1)O[C@H](C)c1cc(F)ccc1-c1nn(C)cc1C2
- ring closure, yield after HPLC ([1]; from CCn1ncc(Cc2cn(C)nc2-c2ccc(F)cc2[C@@H](C)Oc2cc(Br)cnc2N)c1Br, B2pin2/Pd(OAc)2/cataCXium A/NaOH, MeOH/H2O, 41.0 mM, 80.0 °C, 12.0 h): 10%

SMILES: CC1Oc2cc(cnc2N)-c2c(nn(C)c2C#N)Cc2ccnn2-c2ccc(F)cc21 (stereo not drawn)
- ring closure, yield after HPLC ([1]; from CC(Oc1cc(Br)cnc1N)c1cc(F)ccc1-n1nccc1Cc1cc(C#N)n(C)n1, Pd(OAc)2/cataCXium A/KOAc, 2-methyl-2-butanol, 20.0 mM, 120.0 °C): 17%

SMILES: CCc1nn(C)c2c1-c1cnc(N)c(c1)OCc1cc(F)ccc1-c1ncccc1C2 [Example 170, 3-ethyl-17-fluoro-5-methyl-21-oxa-4,5,12,24-tetraazapentacyclo[20.3.1.0^2,^6.0^8,^13.0^14,^19]hexacosa-1(25),2(6),3,8(13),9,11,14,16,18,22(26),23-undecaen-23-amine]
- ring closure, yield after HPLC ([1]; from CCc1nn(C)c(Cc2cccnc2-c2ccc(F)cc2COc2cc(Br)cnc2N)c1Br, B2pin2/Pd(OAc)2/cataCXium A/CsF, MeOH/H2O, 17.0 mM, 80.0 °C, 5.0 h): 3.3%
- TPM3-NTRK1-wt/CD74-ROS1-G2032R ([3]; TRKA selectivity ratio: TPM3-NTRK1-wt IC50 / CD74-ROS1-G2032R IC50, Ba/F3 cells): A (bin A for very high selectivity, ratio>30-fold)
- TPM3-NTRK1-wt/CD74-ROS1-wt ([3]; TRKA selectivity ratio: TPM3-NTRK1-wt IC50 / CD74-ROS1-wt IC50, Ba/F3 cells): A (bin A for very high selectivity, ratio>30-fold)
- TPM3-NTRK1-wt/EML4-ALK-L1196M-G1202R ([3]; TRKA selectivity ratio: TPM3-NTRK1-wt IC50 / EML4-ALK-L1196M-G1202R IC50, Ba/F3 cells): B (bin B for high selectivity, ratio>10-fold)
- TPM3-NTRK1-wt/EML4-ALK-wt ([3]; TRKA selectivity ratio: TPM3-NTRK1-wt IC50 / EML4-ALK-wt IC50, Ba/F3 cells): A (bin A for very high selectivity, ratio>30-fold)

SMILES: C[C@H]1Oc2cc(cnc2N)-c2c(C#N)cnn2Cc2cn(C)nc2-c2ccc(F)cc21
- ring closure, yield after HPLC ([1]; from C[C@@H](Oc1cc(Br)cnc1N)c1cc(F)ccc1-c1nn(C)cc1Cn1cc(C#N)cn1, Pd(OAc)2/cataCXium A/KOAc, 2-methyl-2-butanol, 32.0 mM, 120.0 °C): 15%

SMILES: CCn1ncc2c1-c1cnc(N)c(c1)OC(C)c1cc(F)ccc1-c1nccn1C2 (stereo not drawn)
- ring closure, yield after HPLC ([1]; from CCn1ncc(Cn2ccnc2-c2ccc(F)cc2C(C)Oc2cc(Br)cnc2N)c1Br, B2pin2/Pd(OAc)2/cataCXium A/NaOH, MeOH/H2O, 57.0 mM, 75.0 °C, 3.0 h): 10%

- Ki [4]: < 50 nM
- Ki [5]: > 500 nM
- Ki [6]: < 50 nM
- Ki [7]: < 50 nM
- Ki [8]: 50 to 500 nM
SMILES: C[C@H]1Oc2cc(cnc2N)-c2c(C#N)nn(C)c2Cc2ccccc2-c2ccc(F)cc21 [Compound 117]
